Like-named read-outs stand apart in the source and are kept apart here.
Legend:
Format in all cases: in vivo
rice (Oryza sativa) = assay: Test C flooded paddy test: rice; settings: scale 0 to 100 (0 no effect, 100 complete control); for plant injury at 62 g/ha / plant injury at 125 g/ha / plant injury at 250 g/ha / plant injury at 31 g/ha: Oryza sativa, read-out: Plant response rating, Rice
How it was run: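 Plants were grown to the 2-leaf stage, pots flooded to 3 cm above soil, and test compounds applied directly to the paddy water, with that depth held throughout. After 13 to 15 days in a greenhouse, injury was visually rated against controls on a 0 (no effect) to 100 (complete control) scale.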

[1] = test system: bromegrass, downy (downy bromegrass, Bromus tectorum); assay: Test C pre-/postemergence: bromegrass, downy
Source text: Seeds of plant species selected from blackgrass (Alopecurus myosuroides), bromegrass, downy (downy bromegrass, Bromus tectorum), foxtail, green (green foxtail, Setaria viridis), ryegrass, Italian (Italian ryegrass, Lolium multiflorum), winter wheat (Triticum aestivum), wild oat (Avena fatua), galium (catchweed bedstraw, Galium aparine), bermudagrass (Cynodon dactylon), surinam grass (Brachiaria decumbens), cocklebur (common cocklebur, Xanthium strumarium), corn (Zea mays), large crabgrass (Digitaria sanguinalis), woolly cupgrass (Eriochloa villosa), foxtail, giant (giant foxtail, Setaria faberii), goosegrass (Eleusine indica), johnsongrass (Sorghum halepense), kochia (Kochia scoparia), lambsquarters (Chenopodium album), morningglory (Ipomoea coccinea), nightshade (eastern black nightshade, Solanum ptycanthum), nutsedge, yellow (yellow nutsedge, Cyperus esculentus), pigweed (Amaranthus retroflexus), ragweed (common ragweed, Ambrosia elation), soybean (Glycine max), common (oilseed) sunflower (Helianthus annuus), Russian thistle (Salsola kali) and velvetleaf (Abutilon theophrasti) were planted into a blend of loam soil and sand and treated preemergence with test chemicals formulated in a non-phytotoxic solvent mixture which included a surfactant.
At the same time, plants selected from these crop and weed species and also barley (winter barley, Hordeum vulgare), canarygrass (Phalaris minor), chickweed (common chickweed, Stellaria media) windgrass (Apera spica-venti) and deadnettle (henbit deadnettle, Lamium amplexicaule) were planted in pots containing Redi-Earth® planting medium (Scotts Company, 14111 Scottslawn Road, Marysville, Ohio 43041) comprising spaghnum peat moss, vermiculite, wetting agent and starter nutrients and treated with postemergence applications of test chemicals formulated in the same manner. Plants ranged in height from 2 to 18 cm (1- to 4-leaf stage) for postemergence treatments.
(§1) Treated plants and controls were maintained in a greenhouse for 13 to 15 days, after which time all species were compared to controls and visually evaluated. Plant response ratings, summarized in Table C, are based on a scale of 0 to 100 where 0 is no effect and 100 is complete control. A dash (-) response means no test result.

[2] = test system: ryegrass, Italian (Italian ryegrass, Lolium multiflorum); assay: Test D pre-/postemergence: ryegrass, Italian
Source text: (§2) Seeds of plant species selected from bluegrass (annual bluegrass, Poa annua), blackgrass (Alopecurus myosuroides), canarygrass (Phalaris minor), chickweed (common chickweed, Stellaria media), galium (catchweed bedstraw, Galium aparine), bromegrass, downy (downy bromegrass, Bromus tectorum), field poppy (Papaver rhoeas), field violet (Viola arvensis), foxtail, green (green foxtail, Setaria viridis), deadnettle (henbit deadnettle, Lamium amplexicaule), ryegrass, Italian (Italian ryegrass, Lolium multiflorum), kochia (Kochia scoparia), lambsquarters (Chenopodium album), oilseed rape (Brassica napus), pigweed (Amaranthus retroflexus), Russian thistle (Salsola iberica), chamomile (scentless chamomile, Matricaria inodora), speedwell (bird's-eye speedwell, Veronica persica), barley, spring (spring barley, Hordeum vulgare), wheat, spring (spring wheat, Triticum aestivum), buckwheat, wild (wild buckwheat, Polygonum convolvulus), mustard, wild (wild mustard, Sinapis arvensis), oat, wild (wild oat, Avena fatua), radish, wild (wild radish, Raphanus raphanistrum), windgrass (Apera spica-venti), barley, winter (winter barley, Hordeum vulgare), and wheat, winter (winter wheat, Triticum aestivum) were planted into a silt loam soil and treated preemergence with test chemicals formulated in a non-phytotoxic solvent mixture which included a surfactant. At the same time, these same crop and weed species were planted in pots containing the planting medium comprising spaghnum peat moss, vermiculite, wetting agent and starter nutrients and treated with postemergence applications of the test chemicals formulated in the same manner. Plants ranged in height from 2 to 18 cm (1- to 4-leaf stage).
as §1, with “controlled growth environment” for “greenhouse”, “14” for “13”, “21 days” for “15 days,”, “D,” for “C,”

kochia (Kochia scoparia) = assay: Test D pre-/postemergence: kochia
Source text: as §2
as §1, with “controlled growth environment” for “greenhouse”, “14” for “13”, “21 days” for “15 days,”, “D,” for “C,”

[3] = test system: barley, spring (spring barley, Hordeum vulgare); assay: Test D pre-/postemergence: barley, spring
Source text: as §2
as §1, with “controlled growth environment” for “greenhouse”, “14” for “13”, “21 days” for “15 days,”, “D,” for “C,”

[4] = test system: mustard, wild (wild mustard, Sinapis arvensis); assay: Test D pre-/postemergence: mustard, wild
Source text: as §2
as §1, with “controlled growth environment” for “greenhouse”, “14” for “13”, “21 days” for “15 days,”, “D,” for “C,”

[5] = Flood (flooded paddy test), 62 g ai/ha, visual rating after 13 to 15 days
[6] = Flood (flooded paddy test), 125 g ai/ha, visual rating after 13 to 15 days
[7] = Flood (flooded paddy test), 250 g ai/ha, visual rating after 13 to 15 days
[8] = Postemergence, 31 g ai/ha, scale 0 to 100 (0 no effect, 100 complete control)
[9] = Postemergence, 62 g ai/ha, scale 0 to 100 (0 no effect, 100 complete control)
[10] = Postemergence, 125 g ai/ha, scale 0 to 100, 0 no effect, 100 complete control
[11] = Postemergence, 250 g ai/ha, scale 0 to 100
[12] = Preemergence, 31 g ai/ha, scale of 0 to 100, 0 is no effect, 100 is complete control
[13] = Preemergence, 125 g ai/ha, scale 0 to 100, 0 no effect, 100 complete control
[14] = Preemergence, 250 g ai/ha, scale 0 to 100, 0 no effect, 100 complete control
[15] = Postemergence, 250 g ai/ha, scale 0 to 100 (0 no effect, 100 complete control)
[16] = Postemergence, 16 g ai/ha, scale 0 to 100
[17] = Preemergence, 16 g ai/ha, scale 0 to 100 (0 no effect, 100 complete control)
[18] = Preemergence, 31 g ai/ha, scale 0 to 100 (0 no effect, 100 complete control)
[19] = Preemergence, 62 g ai/ha, scale 0 to 100
[20] = Preemergence, 125 g ai/ha, scale 0 to 100
[21] = Preemergence, 62 g ai/ha, scale of 0 to 100, 0 is no effect, 100 is complete control

`Cc1nn(-c2ccc(C(F)(F)F)cc2)nc1Cc1ccnc(C(F)(F)F)c1` [Compound 47, 4-[[5-methyl-2-[4-(trifluoromethyl)phenyl]-2H-1,2,3-triazol-4-yl]methyl]-2-(trifluoromethyl)pyridine] was tested, and the plant injury at 62 g/ha (rice (Oryza sativa); [5]) was 50%, the plant injury at 125 g/ha (rice (Oryza sativa); [6]) was 60% and the plant injury at 250 g/ha (rice (Oryza sativa); [7]) was 60%. The plant injury at 31 g/ha (rice (Oryza sativa); Flood, 31 g ai/ha) was 30%, the “Plant response rating, Bromegrass, Downy” value [1, 8] was 10 and the “Plant response rating, Bromegrass, Downy” value [1, 9] was 30. The “Plant response rating, Bromegrass, Downy” value [1, 10] was 50, the “Plant response rating, Bromegrass, Downy” value [1, 11] was 65 and the “Plant response rating, Bromegrass, Downy” value [1, 12] was 15. For the same compound, the “Plant response rating, Bromegrass, Downy” value ([1]; Preemergence, 62 g ai/ha, scale 0 to 100, 0 no effect, 100 complete control) was 40, the “Plant response rating, Bromegrass, Downy” value [1, 13] was 90 and the “Plant response rating, Bromegrass, Downy” value [1, 14] was 100.

For `Cc1nn(-c2ccnc(C(F)(F)F)c2)nc1Cc1ccnc(C(F)(F)F)c1` [Compound 137], the “Plant response rating: Ryegrass, Italian” value [2, 8] was 10, the “Plant response rating: Ryegrass, Italian” value [2, 9] was 25 and the “Plant response rating: Ryegrass, Italian” value [2, 10] was 35. For the same compound, the “Plant response rating: Ryegrass, Italian” value [2, 15] was 40, the “Plant response rating, Ryegrass, Italian” value [2, 16] was 0 and the “Plant response rating: Kochia” value (kochia (Kochia scoparia); [8]) was 85. The “Plant response rating: Kochia” value (kochia (Kochia scoparia); [9]) was 90, the “Plant response rating: Kochia” value (kochia (Kochia scoparia); [10]) was 95 and the “Plant response rating: Kochia” value (kochia (Kochia scoparia); [15]) was 100. For the same compound, the “Plant response rating, Kochia” value (kochia (Kochia scoparia); [16]) was 75, the “Plant response rating: Barley, Spring” value [3, 8] was 15 and the “Plant response rating: Barley, Spring” value [3, 9] was 25. For the same compound, the “Plant response rating: Barley, Spring” value [3, 10] was 30, the “Plant response rating: Barley, Spring” value [3, 15] was 40 and the “Plant response rating, Barley, Spring” value [3, 16] was 10. The “Plant response rating, Bromegrass, Downy” value [1, 8] was 10, the “Plant response rating, Bromegrass, Downy” value [1, 9] was 30 and the “Plant response rating, Bromegrass, Downy” value [1, 10] was 60. The “Plant response rating, Bromegrass, Downy” value [1, 11] was 85, the “Plant response rating: Mustard, Wild” value [4, 8] was 60 and the “Plant response rating: Mustard, Wild” value [4, 9] was 80. For the same compound, the “Plant response rating: Mustard, Wild” value [4, 10] was 95, the “Plant response rating: Mustard, Wild” value [4, 15] was 100 and the “Plant response rating, Mustard, Wild” value [4, 16] was 50.

For `Cc1nn(-c2ccc(F)c(C(F)(F)F)c2)nc1Oc1ccnc(C(F)(F)F)c1` [Compound 147], the “Plant response rating: Ryegrass, Italian” value [2, 8] was 10, the “Plant response rating: Ryegrass, Italian” value [2, 9] was 15 and the “Plant response rating: Ryegrass, Italian” value [2, 10] was 35. The “Plant response rating, Ryegrass, Italian” value [2, 16] was 5, the “Plant response rating, Ryegrass, Italian” value [2, 17] was 0 and the “Plant response rating, Ryegrass, Italian” value [2, 18] was 5. For the same compound, the “Plant response rating, Ryegrass, Italian” value [2, 19] was 15, the “Plant response rating, Ryegrass, Italian” value [2, 20] was 30 and the “Plant response rating: Kochia” value (kochia (Kochia scoparia); [8]) was 85. The “Plant response rating: Kochia” value (kochia (Kochia scoparia); [9]) was 90, the “Plant response rating: Kochia” value (kochia (Kochia scoparia); [10]) was 95 and the “Plant response rating, Kochia” value (kochia (Kochia scoparia); [16]) was 70. For the same compound, the “Plant response rating, Kochia” value (kochia (Kochia scoparia); [17]) was 15, the “Plant response rating, Kochia” value (kochia (Kochia scoparia); [18]) was 15 and the “Plant response rating, Kochia” value (kochia (Kochia scoparia); [19]) was 50. For the same compound, the “Plant response rating, Kochia” value (kochia (Kochia scoparia); [20]) was 70, the “Plant response rating: Barley, Spring” value [3, 8] was 15 and the “Plant response rating: Barley, Spring” value [3, 9] was 20. The “Plant response rating: Barley, Spring” value [3, 10] was 25, the “Plant response rating, Barley, Spring” value [3, 16] was 15 and the “Plant response rating, Barley, Spring” value [3, 17] was 0. The “Plant response rating, Barley, Spring” value [3, 18] was 0, the “Plant response rating, Barley, Spring” value [3, 19] was 5 and the “Plant response rating, Barley, Spring” value [3, 20] was 10. For the same compound, the “Plant response rating, Bromegrass, Downy” value [1, 12] was 10, the “Plant response rating, Bromegrass, Downy” value [1, 21] was 45 and the “Plant response rating, Bromegrass, Downy” value [1, 13] was 85. The “Plant response rating, Bromegrass, Downy” value [1, 14] was 90, the “Plant response rating: Mustard, Wild” value [4, 8] was 100 and the “Plant response rating: Mustard, Wild” value [4, 9] was 100. The “Plant response rating: Mustard, Wild” value [4, 10] was 100, the “Plant response rating, Mustard, Wild” value [4, 16] was 95 and the “Plant response rating, Mustard, Wild” value [4, 17] was 55. For the same compound, the “Plant response rating, Mustard, Wild” value [4, 18] was 60, the “Plant response rating, Mustard, Wild” value [4, 19] was 100 and the “Plant response rating, Mustard, Wild” value [4, 20] was 95.

Work on `COc1nn(-c2ccc(C(F)(F)F)cc2)nc1Cn1ccc(C(F)(F)F)n1` [Compound 17, 4-methoxy-2-[4-(trifluoromethyl)phenyl]-5-[[3-(trifluoromethyl)-1H-pyrazol-1-yl]methyl]-2H-1,2,3-triazole] yielded a plant injury at 62 g/ha (rice (Oryza sativa); [5]) of 15%, a plant injury at 125 g/ha (rice (Oryza sativa); [6]) of 35% and a plant injury at 250 g/ha (rice (Oryza sativa); [7]) of 45%. For the same compound, the plant injury at 31 g/ha (rice (Oryza sativa); Flood, 31 g ai/ha) was 10%.

In the case of `CCc1nn(-c2ccc(C(F)(F)F)cc2)nc1Oc1cccc(OC(F)(F)F)c1` [Compound 125, 4-ethyl-5-[3-(trifluoromethoxy)phenoxy]-2-[4-(trifluoromethyl)phenyl]-2H-1,2,3-triazole], the plant injury at 125 g/ha (rice (Oryza sativa); [6]) is reported as 0%, the plant injury at 250 g/ha (rice (Oryza sativa); [7]) is reported as 10% and the plant injury at 31 g/ha (rice (Oryza sativa); Flood, 31 g ai/ha) is reported as 0%. For the same compound, the plant injury at 62 g/ha (rice (Oryza sativa); Flood, 62 g ai/ha) was 0%.

For `Fc1ccc(-n2nc(Cc3ccnc(C(F)(F)F)c3)c(OCC(F)(F)F)n2)cc1` [Compound 142], the “Plant response rating, Bromegrass, Downy” value [1, 8] was 25, the “Plant response rating, Bromegrass, Downy” value [1, 9] was 45 and the “Plant response rating, Bromegrass, Downy” value [1, 10] was 45. For the same compound, the “Plant response rating, Bromegrass, Downy” value [1, 11] was 50, the “Plant response rating, Bromegrass, Downy” value [1, 12] was 20 and the “Plant response rating, Bromegrass, Downy” value [1, 21] was 60. For the same compound, the “Plant response rating, Bromegrass, Downy” value [1, 13] was 90 and the “Plant response rating, Bromegrass, Downy” value [1, 14] was 90.

`Cc1nn(-c2ccc(C(F)(F)F)cc2)nc1Cc1cccc(C(F)(F)F)c1` [Compound 124] was tested, and the “Plant response rating, Rice” value (rice (Oryza sativa); [6]) was 15, the “Plant response rating, Rice” value (rice (Oryza sativa); [7]) was 20 and the “Plant response rating, Rice” value (rice (Oryza sativa); Flood, 31 g ai/ha) was 0. For the same compound, the “Plant response rating, Rice” value (rice (Oryza sativa); Flood, 62 g ai/ha) was 0, the “Plant response rating, Bromegrass, Downy” value ([1]; Postemergence, 16 g ai/ha, scale 0 to 100, 0 no effect, 100 complete control) was 0 and the “Plant response rating, Bromegrass, Downy” value [1, 8] was 0. For the same compound, the “Plant response rating, Bromegrass, Downy” value [1, 9] was 0 and the “Plant response rating, Bromegrass, Downy” value [1, 10] was 0.

— US9302999B2, “Substituted triazoles as herbicides” (E. I. DU PONT DE NEMOURS AND COMPANY, priority 2012, dated 2016)
